Where no end group is shown, it is not given here.
Tested on: human red blood cells
Type: cell-based
Details: red cells of human, 24 h
Method: Tissue expression of devil cathelicidin prepropeptides was determined by real-time PCR on a range of secretory, immune, reproductive, gastrointestinal and respiratory tissues, as well as BLAST searches of the milk transcriptome. Opportunistic tissue samples for real-time PCR were collected from Taronga Zoo (Sydney) from devils which were subject to euthanasia due to old age and advanced disease. […] Ltd. and their antimicrobial activity against bacterial and fungal pathogens determined by broth microdilution susceptibility assay according to clinical laboratory standards institute guidelines. Antimicrobial activity was expressed as minimum inhibitory concentration (MIC). Cytotoxicity was assessed in the human cell line A549 and haemolytic activity determined against human blood. Statistical significance of peptide effect on cell survival in comparison to the untreated control was calculated using a one sample t-test. Pouch microbiome analysis was performed on swabs from the pouch of lactating and non-lactating devils to detect changes in microbe populations. Pouch swab collection was carried out in accordance with the Save the Tasmanian Devil Program and was approved by the Animal Ethics Committee of the University of Sydney (permit number 681). page 3: […] Two antibiotics, ampicillin and tetracycline, were included as a positive control for bacteria, and the […] A well containing cells and media only was used as a “no drug” control to ensure that cultures grew normally. Bacteria were subcultured on Mueller Hinton agar (MHA) or Sheep blood agar (BA) for 24 hours at 35 °C for Staphylococcus spp., Pseudomonas spp., Enterococcus spp. and E.coli, with 5% CO2 for Streptococcus spp., K.pneumoniae, P.multocida, […] Similarly, fungi were subcultured on Sabouraud agar (SAB) at 35 °C for 24 hours prior to the test. Colonies were resuspended in saline and the OD530 measured with a McFarland reader. If necessary the suspension was diluted to 0.45-0.55 McFarland units with saline. […] Assays Antimicrobial activity was expressed as minimum inhibitory concentration (MIC), which was defined as the lowest concentration of cathelicidin preventing visible growth, relative to the negative control. Colonies which grew on agar plates were also counted. Cytotoxicity Cytotoxicity was assessed in the human A549 cell line maintained in Dulbecco’s Modification of Eagle’s Medium (DMEM) supplemented with 10% foetal bovine serum (FBS), 2mM L -glutamine, 50units/mL penicillin and 50μg/mL streptomycin. […] Following incubation for a further 24 hours, cell viability was determined using alamar blue (Invitrogen) which was added to each well. […]

KRMGIFHLFWAGLRKLGNLIKNKIQQGIENFLG [Saha-CATH3]
haemolysis compared with the positive control: below 7%

— publication PMC5057115, “Cathelicidins in the Tasmanian devil (Sarcophilus harrisii)” (Scientific Reports, 2016)
